Target: protein disulfide isomerase (PDI, PDIA1) (Homo sapiens, UniProt P07237)
Test: surface plasmon resonance
Assay type: binding

protein disulfide isomerase (PDI, PDIA1), sequence (P07237 18-508): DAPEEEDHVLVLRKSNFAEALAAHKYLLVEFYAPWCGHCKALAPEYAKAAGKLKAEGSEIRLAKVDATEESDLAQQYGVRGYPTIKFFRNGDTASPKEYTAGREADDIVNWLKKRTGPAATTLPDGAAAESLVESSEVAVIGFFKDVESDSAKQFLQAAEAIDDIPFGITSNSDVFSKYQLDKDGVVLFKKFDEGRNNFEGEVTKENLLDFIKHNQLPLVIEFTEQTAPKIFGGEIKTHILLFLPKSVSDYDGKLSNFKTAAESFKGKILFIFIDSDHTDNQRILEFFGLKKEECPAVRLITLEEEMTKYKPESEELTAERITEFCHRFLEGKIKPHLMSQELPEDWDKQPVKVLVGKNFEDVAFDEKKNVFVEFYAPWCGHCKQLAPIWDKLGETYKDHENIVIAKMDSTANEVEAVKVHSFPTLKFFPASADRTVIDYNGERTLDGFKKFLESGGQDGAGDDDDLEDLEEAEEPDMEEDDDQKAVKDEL

Kd: 3.3 nM
SMILES: Cc1c(-c2ccc(O)cc2)n(Cc2ccc(OCCN3CCCCCC3)cc2)c2ccc(O)cc12 [BAZ, bazedoxifene]

Reference: publication PMC12060420 (Cell Communication and Signaling : CCS, 2025)
